In US7317034B2, “Substituted C-furan-2-yl-methylamine and C-thiophen-2-yl-methylamine compounds” (Gruenenthal GmbH, priority 2001, dated 2008):

Target: binding site 2 of the sodium channel (BTX binding site)
Test: Binding to the sodium channel, binding site 2 (BTX binding), [3H]-batrachotoxinin A20 α-benzoate displacement
Details: rat cerebrocortex synaptosomes; for BTX binding (10 μM): 10 μM test compound, ligand [3H]-batrachotoxinin A20 α-benzoate 10 nM, 120 min at 25° C.

| Molecule | Kd (radioligand [3H]-batrachotoxinin A20 α-benzoate, N=2, mean±SEM, read-out: KD value for that binding site) [nM] | BTX binding (10 μM) [%] |
| --- | --- | --- |
| [3H]-batrachotoxinin A20 α-benzoate [reference compound] | 24.6 ± 1.56 |  |
| 5-[1-(2-Chloro-phenylamino)-2-oxo-2-phenyl-ethyl]-2-methyl-furan-3-carboxylic acid ethyl ester |  | 40 |
| COC(=O)c1cc(C(Nc2ccc(Cl)cc2F)C(=O)c2ccccc2)oc1C (centres unmarked) [C, 5-[1-(4-Chloro-2-fluoro-phenylamino)-2-oxo-2-phenyl-ethyl]-2-methyl-furan-3-carboxylic acid methyl ester] |  | 57 |
| COC(=O)c1cc(C(Nc2ccc(Cl)cc2C)C(=O)c2ccccc2)oc1C (centres unmarked) [Example B, 5-[1-(4-Chloro-2-methyl-phenylamino)-2-oxo-2-phenyl-ethyl]-2-methyl-furan-3-carboxylic acid methyl ester] |  | 55 |
| CCOC(=O)c1cc(C(Nc2ccc(Cl)cc2C)C(=O)c2ccccc2)oc1C (centres unmarked) [D, 5-[1-(4-Chloro-2-methyl-phenylamino)-2-oxo-2-phenyl-ethyl]-2-methyl-furan-3-carboxylic acid ethyl ester] |  | 37 |
